Results taken from PMC3005942, “Cloning, Expression, and Purification of a Nitric Oxide Synthase-Like Protein from Bacillus cereus” (Biochemistry Research International, 2009).

Legend:
bcNOS [1] = molecular target: T1, bcNOS (Bacillus cereus, UniProt Q814I7); assay: H2O2-dependent NOHA oxidation to nitrite, plate reader; format: biochemical; conditions: H2O2, 25 °C, activator
T1 construct: gene BC_5444; full length, 356 residues, 43 kDa, homodimer; N-terminal His6 tag (pET28a, NdeI/EcoRI), E. coli BL21(DE3) pLysS; heme protein
T1 sequence (Q814I7 1-356): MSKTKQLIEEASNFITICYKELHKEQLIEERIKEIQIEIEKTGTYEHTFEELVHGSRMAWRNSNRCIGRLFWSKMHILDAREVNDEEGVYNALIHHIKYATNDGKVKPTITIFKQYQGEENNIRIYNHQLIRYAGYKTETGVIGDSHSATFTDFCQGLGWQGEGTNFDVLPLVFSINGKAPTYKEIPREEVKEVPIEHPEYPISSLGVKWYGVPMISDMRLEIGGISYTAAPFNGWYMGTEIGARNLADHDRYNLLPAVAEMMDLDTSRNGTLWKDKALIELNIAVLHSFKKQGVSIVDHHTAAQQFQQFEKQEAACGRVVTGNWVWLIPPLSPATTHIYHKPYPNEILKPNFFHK

bcNOS [2] = molecular target: T1, bcNOS; assay: difference spectroscopy, double-reciprocal analysis; format: binding; conditions: distal sixth ligand of ferric heme

Row | Compound | H2O2-dependent NOHA oxidation to nitrite, plate reader (bcNOS [1]) | Kd (bcNOS [2])
1 | Nc1nc2c(c(=O)[nH]1)N[C@@H](CNc1ccc(C(=O)N[C@@H](CCC(=O)O)C(=O)O)cc1)CN2 [THF] | in the presence of NOHA and THF the activity doubled | –
2 | c1c[nH]cn1 [imidazole] | – | 181 ± 13 µM
